Values after ≈ are worked out from the molar mass of the structure shown. Read-outs that look alike come from different tables or passages of the source.
What was measured:
Type in all cases: cell-based
[1] = test system: Trypanosoma cruzi (Tulahuen C2C4 strain); assay: American trypanosome protozoa growth inhibition screening test
Protocol: In the present experiment, amastigote and trypomastigote infected with rat L6 cells of protozoa of Trypanosoma cruzi (Tulahuen C2C4 starin) were used. As medium used in the test, RPMI 1640 medium containing L6 cells was supplemented so that L-glutamine (200 mM) become 1%, fetal bovine serum becomes 10%, which was cultured under CO2 concentration 5%, at 37° C.
The compounds of the present invention to be used in the present test and the positive control drug (benznidazole) were dissolved in DMSO to make a test solution of a predetermined concentration.
A medium containing 5×10^3 protozoa was added to wells of a 96-well culture plate, and pre-cultured for 48 hours. After replacing the medium, test solution containing drug of a predetermined concentration or a drug-free DMSO was added. Test solutions were taken by duplicates.
After culturing the culture plate in an incubator for 96 hours, growth inhibition activity was tested. Test was conducted as follows. 50 μL of CPRG/Nonidet was added to each well, and allowed to rest for 2 to 6 hours. Next, the culture plate was placed on a fluorescent micro-plate reader. The absorbance was measured at 540 nm, and the trypanosome infection rate of the test solution added group and control group were calculated.
(§1) Growth inhibition rate (%)={1−(b−a)/(c−a)}×100 • a: early infection rate • b: infection rate when test solution was added • c: infection rate of the control

[2] = test system: Trypanosoma brucei rhodesiense (STIB 900 strain); assay: African trypanosome protozoa growth inhibition screening test
Protocol: In the present experiment, protozoa of Tripanosoma brucei rhodensiense (STIB 900 Strain), a trypomastigote living in blood stream, was used. The medium used in the experiment was a MEM medium which was sterilized with a filter and supplemented with 25 mM N-2-hydroxyeihylpiperazine-2-ethansulfonic acid (HEPES), 1 g/L glucose, 1% MEM non-essential amino acid, 0.2 mM 2-mercaptoethanol, 2 mM sodium pyruvate, 0.1 mM hypoxanthine, and 15% heat-treated horse serum. The protozoa was cultured in an atmosphere of CO2 concentration 5%, at a temperature of 37° C.
The compounds of the present invention to be used in the present test and the positive control drug (melarsoprol) were dissolved in dimethylsulfoxide (DMSO) to make a test solution of a predetermined concentration.
A medium containing 8×10^3 protozoa, and a test solution containing a drug of a predetermined concentration of a drug-free DMSO were added to wells of a 96-well culture plate, and subsequently, medium was added so that the amount in each well becomes 100 μL. Test solutions were taken by duplicates.
After culturing the culture plate for 72 hours in an incubator, growth inhibition activity was tested. Test was conducted as follows. 10 μL of Alamar Blue aqueous solution was added to each well, and the resultant was further cultured for 2 hours. Next, the culture plate was placed on a fluorescent micro-plate reader (Spectramax Gemeni XS; US Molecular Device), radiated at an excited wavelength of 536 nm. Fluorescent intensity was measured at 588 nm, to calculate the trypanosome protozoa infected rate of the test solution added-group, and of the control group.
as §1

Rat L6 cells = assay: Growth inhibition test of rat L6 cells
Protocol: Rat derived-L6 cells (rat skeletal myoblast cell) were used. A medium, RPMI1640 medium was supplemented so that L-glutamin (200 mM) is 1%, and fetal bovine serum 10%, and the medium was cultured under CO2 concentration 5%, at 37° C.
The compounds of the present invention and the control drugs to be used in the test were dissolved in DMSO, to make a test solution of a predetermined concentration.
Pre-culture was conducted and medium containing cells which have entered the logarithmic growth phase was taken to wells of a 96-well culture plate. Then, a test solution containing drug of a predetermined concentration or a drug-free DMSO was added. Test solutions were taken by duplicates.
Culture plate was cultured for 72 hours in an incubator, to test the growth inhibition activity. Test was conducted as follows. 10 μL of Alamar Blue aqueous solution was added to each well, and the resultant was further cultured for 2 hours. Next, the culture plate was placed on a fluorescent micro-plate reader (Spectramax Gemeni XS; US Molecular Device), radiated at an excited wavelength of 536 nm. Fluorescent intensity was measured at 588 nm, and residual rate of L6 cells of the test solution added group, and that of the control was calculated.
Growth inhibition rate (%)={(C−A)/(B−A)}×100 • A: Primary cell count • B: cell count of control, 3 days after • C: cell count of wells added with a sample, 3 days after 4. Determination of Drug Efficacy Against Chloroquine Resistant-Plasmodium

[3] = Table 6, unit inferred, read-out: Trypanosoma cruzi
[4] = Table 6, unit inferred, read-out: Trypanosoma brucei rhod.
[5] = Table 2, unit inferred, 72 hours, read-out: Cytoxicity L6

## CCN(CC)c1ccc2nc3c4ccccc4c(=Nc4ccc5ccccc5n4)cc-3oc2c1 [Compound 1H, N,N-Diethyl-5-(quinolin-2-ylimino)-5H-benzo[a]phenoxazin-9-amine]
[1]; Trypanosoma cruzi, Table 5, in rat L6 cells, 96 hours, CPRG/Nonidet, read-out: 50% Growth inhibition concentration Trypanosoma cruzi
  EC50: 3.31 µg/mL (≈ 7.45 µM)
[2]; Table 5, 72 hours, Alamar Blue, read-out: 50% Growth inhibition concentration Trypanosoma brucei rhod.
  EC50: 4.6 µg/mL (≈ 10.3 µM)
Rat L6 cells; Table 1, 72 hours, Alamar Blue, read-out: 50% Growth inhibition concentration Cytoxicity L6
  EC50: 30.1 µg/mL (≈ 67.8 µM)

## CCN(CCNS(C)(=O)=O)c1cc(C)c2nc3c4ccccc4c(=Nc4ccncc4)cc-3oc2c1 [Compound 1R, N-Ethyl-N-(2-methansulfonamidylethyl)-11-methyl-5-(pyridine-4-ylimino)-5H-benzo[a]phenoxazin-9-amine]
[1]; [3]
  EC50: 2.01 µg/mL (≈ 4.01 µM)
[2]; [4]
  EC50: 5.34 µg/mL (≈ 10.7 µM)
Rat L6 cells; [5]
  EC50: 7.97 µg/mL (≈ 15.9 µM)

## CCN(CCNS(C)(=O)=O)c1cc(C)c2nc3c4ccccc4c(=Nc4ccccn4)cc-3oc2c1 [Compound 1S, N-Ethyl-N-(2-methansulfonamidylethyl)-11-methyl-5-(pyridine-2-ylimino)-5H-benzo[a]phenoxazin-9-amine]
[1]; [3]
  EC50: 0.376 µg/mL (≈ 0.75 µM)
[2]; [4]
  EC50: 0.714 µg/mL (≈ 1.42 µM)
Rat L6 cells; [5]
  EC50: 0.307 µg/mL (≈ 0.612 µM)

From patent US8288374B2, “Medicinal composition containing benzo[a]phenoxazine compound as the active ingredient for prevention or treatment of protozoal disease” (Hoshi University, priority 2008, dated 2012)
